Experimental data taken from ChEMBL document CHEMBL1123562, “N-substituted oxopyrimidines and nucleosides: structure-activity relationship for hypnotic activity as central nervous system depressant” (J Med Chem, 1987).
Several values for one entry are separate records, joined by “and”; a condition that tells them apart may be missing. Equal entries are not always repeated.

Key:
Mus musculus [1] = test: Hypnotic activity expressed as sleeping time was determined in ddN strain mice by the icv administration of 3.0 uMol/mouse of the compound; format: functional
Mus musculus [2] = test: Hypnotic activity expressed as ratio of number of animals slept and total number of animals tested was determined in ddN strain mice by the icv administration of 0.3 mmol/mouse of the compound; 7/8; format: functional
Mus musculus [3] = test: Hypnotic activity expressed as sleeping time was determined in ddN strain mice by the iv administration of 0.3 mmol/kg of the compound; None indicates that the mouse could not fall into sleep; format: functional, organism-based
Mus musculus [4] = test: Hypnotic activity expressed as sleeping time was determined in ddN strain mice by the iv administration of 0.1 mmol/kg of the compound; None indicates that the mouse could not fall into sleep; format: functional, organism-based
Mus musculus [5] = test: Hypnotic activity expressed as ratio of number of animals slept and total number of animals tested was determined in ddN strain mice by the icv administration of 0.3 mmol/mouse of the compound; 8/8; format: functional
Mus musculus [6] = test: Tested for PB (pentobarbital)-induced sleep effect expressed as percent control of sleeping time at a dosage (icv) of 1.0 uM concentration; format: functional
Mus musculus [7] = test: Hypnotic activity expressed as sleeping time was determined in ddN strain mice by the icv administration of 0.1 mmol/mouse of the compound; None indicates that the mouse could not fall into sleep; format: functional, organism-based
Mus musculus [8] = test: Hypnotic activity in ddN strain mice by the iv administration of 0.5 mmol/kg; No activity.; format: functional, organism-based
[9] = Partition coefficient is determined for the compound from its equilibrium concentrations in organic phase to that in aqueous buffer of pH 7.4; format: ADME; conditions: octanol/water
Mus musculus [10] = test: Tested for PB (pentobarbital)-induced sleep effect expressed as percent control of sleeping time at a dosage (icv) of 2.0 uM concentration; format: functional
Mus musculus [11] = test: Hypnotic activity expressed as sleeping time was determined in ddN strain mice by the icv administration of 3.8 uMol/mouse of the compound; format: functional
Mus musculus [12] = test: Tested for PB (pentobarbital)-induced sleep effect expressed as percent control of sleeping time at a dosage (icv) of 3.8 uM concentration; format: functional
Mus musculus [13] = test: Hypnotic activity expressed as sleeping time was determined in ddN strain mice by the icv administration of 2.0 uMol/mouse of the compound; format: functional
Mus musculus [14] = test: Hypnotic activity expressed as ratio of number of animals slept and total number of animals tested was determined in ddN strain mice by the icv administration of 0.1 mmol/mouse of the compound; 0/8; format: functional
Mus musculus [15] = test: Hypnotic activity expressed as sleeping time was determined in ddN strain mice by the icv administration of 3.8 uMol/mouse of the compound; None indicates that the mouse could not fall into sleep; format: functional, organism-based
Mus musculus [16] = test: Hypnotic activity expressed as sleeping time was determined in ddN strain mice by the icv administration of 1.0 uMol/mouse of the compound; format: functional
Mus musculus [17] = test: Hypnotic activity expressed as ratio of number of animals slept and total number of animals tested was determined in ddN strain mice by the icv administration of 0.5 mmol/kg of the compound; 4/4; format: functional
Mus musculus [18] = test: Hypnotic activity expressed as ratio of number of animals slept and total number of animals tested was determined in ddN strain mice by the icv administration of 0.3 mmol/kg of the compound; 6/6; format: functional
Mus musculus [19] = test: Hypnotic activity expressed as ratio of number of animals slept and total number of animals tested was determined in ddN strain mice by the icv administration of 0.1 mmol/kg of the compound; 8/8; format: functional
Mus musculus [20] = test: Hypnotic activity expressed as sleeping time was determined in ddN strain mice by the icv administration of 2.0 uMol/mouse of the compound; None indicates that the mouse could not fall into sleep; format: functional, organism-based
Mus musculus [21] = test: Tested for PB (pentobarbital)-induced sleep effect expressed as percent control of sleeping time at a dosage (icv) of 2.4 uM concentration; format: functional
Mus musculus [22] = test: Hypnotic activity expressed as sleeping time was determined in ddN strain mice by the iv administration of 0.3 mmol/kg of the compound; format: functional
Mus musculus [23] = test: Hypnotic activity expressed as sleeping time was determined in ddN strain mice by the iv administration of 0.5 mmol/kg of the compound; format: functional
Mus musculus [24] = test: Hypnotic activity expressed as ratio of number of animals slept and total number of animals tested was determined in ddN strain mice by the icv administration of 0.3 mmol/kg of the compound; 2/8; format: functional
Mus musculus [25] = test: Hypnotic activity expressed as ratio of number of animals slept and total number of animals tested was determined in ddN strain mice by the icv administration of 0.1 mmol/kg of the compound; 0/8; format: functional
Mus musculus [26] = test: Hypnotic activity expressed as sleeping time was determined in ddN strain mice by the icv administration of 1.0 uMol/mouse of the compound; None indicates that the mouse could not fall into sleep; format: functional, organism-based
Mus musculus [27] = test: Hypnotic activity expressed as ratio of number of animals slept and total number of animals tested was determined in ddN strain mice by the icv administration of 0.5 mmol/kg of the compound; 5/8; format: functional
Mus musculus [28] = test: Hypnotic activity expressed as sleeping time was determined in ddN strain mice by the iv administration of 0.5 umol/kg of the compound; None indicates that the mouse could not fall into sleep; format: functional, organism-based
Mus musculus [29] = test: Hypnotic activity expressed as sleeping time was determined in ddN strain mice by the icv administration of 12.0 uMol/mouse of the compound; format: functional

For `O=c1ccn(C2O[C@H](CO)[C@@H](O)[C@H]2O)c(=O)n1Cc1ccccc1` (stereo partly drawn), the Sleeping time (Mus musculus [1]) was 106 min, the Activity (Mus musculus [2]) was 7 and the Sleeping time (Mus musculus [3]) was “None”. For the same molecule, the Sleeping time (Mus musculus [4]) was “None”, the Activity (Mus musculus [5]) was 8 and the Control (Mus musculus [6]) was 154%. For the same molecule, the Sleeping time (Mus musculus [7]) was “None”, the Sleeping time (Mus musculus [8]) was “None” and the Partition coefficient [9] was 2.16. For the same molecule, the “Sleeping time (% of control)” value (Mus musculus [10]) was 292%, the Sleeping time (Mus musculus [11]) was 153 min and the Control (Mus musculus [12]) was 404%. The Sleeping time (Mus musculus [13]) was 36 min and 28 min and the Activity (Mus musculus [14]) was 0.

For `CC(C)=CCn1c(=O)ccn(C2O[C@H](CO)[C@@H](O)[C@H]2O)c1=O` (stereo partly drawn), the Sleeping time (Mus musculus [15]) was “None”, the Sleeping time (Mus musculus [8]) was “None” and the Control (Mus musculus [12]) was 228%.

For `Cc1ccccc1Cn1c(=O)ccn(C2O[C@H](CO)[C@@H](O)[C@H]2O)c1=O` (stereo partly drawn), the Sleeping time (Mus musculus [1]) was 129 min, the Sleeping time (Mus musculus [16]) was 45 min and the Activity (Mus musculus [17]) was 4. For the same molecule, the Sleeping time (Mus musculus [8]) was “None”, the Activity (Mus musculus [18]) was 6 and the “Sleeping time (% of control)” value (Mus musculus [10]) was 344%. The Sleeping time (Mus musculus [13]) was 72 min and 70 min and the Activity (Mus musculus [19]) was 8.

With `O=c1[nH]c(=O)n(C2CCCO2)cc1F` (stereo not drawn) [TEGAFUR] the Sleeping time (Mus musculus [3]) was “None”, the Sleeping time (Mus musculus [4]) was “None” and the Sleeping time (Mus musculus [8]) was “None”. The Partition coefficient [9] was 0.35, the “Sleeping time (% of control)” value (Mus musculus [10]) was 139% and the Sleeping time (Mus musculus [20]) was “None”.

For `O=c1ccn([C@@H]2O[C@H](CO)[C@@H](O)[C@H]2O)c(=O)[nH]1` [URIDINE], the Sleeping time (Mus musculus [15]) was “None”, the Control (Mus musculus [6]) was 93% and the Sleeping time (Mus musculus [8]) was “None”. For the same molecule, the Control (Mus musculus [12]) was 138% and the Control (Mus musculus [21]) was 135%.

In the case of `COC[C@H]1O[C@@H](n2ccc(=O)[nH]c2=O)[C@H](OC)[C@@H]1OC`, the Sleeping time (Mus musculus [3]) is reported as “None”, the Sleeping time (Mus musculus [4]) is reported as “None” and the Sleeping time (Mus musculus [8]) is reported as “None”. For the same molecule, the Partition coefficient [9] was 2.16, the Control (Mus musculus [10]) was 144% and the Sleeping time (Mus musculus [20]) was “None”.

With `Cn1c(=O)ccn(C2O[C@H](CO)[C@@H](O)[C@H]2O)c1=O` (stereo partly drawn) the Sleeping time (Mus musculus [15]) was “None”, the Sleeping time (Mus musculus [8]) was “None” and the Control (Mus musculus [12]) was 117%.

In the case of `CC(=O)OC[C@H]1O[C@@H](n2ccc(=O)n(Cc3ccccc3)c2=O)[C@H](OC(C)=O)[C@@H]1OC(C)=O`, the Sleeping time (Mus musculus [4]) is reported as “None”, the Sleeping time (Mus musculus [22]) is reported as 1 min and the Partition coefficient [9] is reported as 32.73. The “Sleeping time (% of control)” value (Mus musculus [10]) was 186%, the Sleeping time (Mus musculus [13]) was 4 min and the Sleeping time (Mus musculus [23]) was 5 min.

For `Cc1cccc(Cn2c(=O)ccn(C3O[C@H](CO)[C@@H](O)[C@H]3O)c2=O)c1` (stereo partly drawn), the Sleeping time (Mus musculus [8]) was “None”, the “Sleeping time (% of control)” value (Mus musculus [10]) was 326% and the Sleeping time (Mus musculus [13]) was 56 min.

In the case of `CC(=O)OC[C@H]1O[C@@H](n2ccc(=O)[nH]c2=O)[C@H](OC(C)=O)[C@@H]1OC(C)=O` [URIDINE TRIACETATE], the Sleeping time (Mus musculus [8]) is reported as “None”, the “Sleeping time (% of control)” value (Mus musculus [10]) is reported as 178% and the Sleeping time (Mus musculus [13]) is reported as 8 min.

For `O=c1ccn(Cc2ccccc2)c(=O)[nH]1`, the Sleeping time (Mus musculus [8]) was “None”, the “Sleeping time (% of control)” value (Mus musculus [10]) was 86% and the Sleeping time (Mus musculus [20]) was “None”.

With `C=CCn1c(=O)ccn(C2O[C@H](CO)[C@@H](O)[C@H]2O)c1=O` (stereo partly drawn) the Sleeping time (Mus musculus [15]) was “None”, the Sleeping time (Mus musculus [8]) was “None” and the Control (Mus musculus [12]) was 173%.

With `CCCn1c(=O)ccn(C2O[C@H](CO)[C@@H](O)[C@H]2O)c1=O` (stereo partly drawn) the Sleeping time (Mus musculus [15]) was “None”, the Sleeping time (Mus musculus [8]) was “None” and the Control (Mus musculus [12]) was 134%.

For `CC(c1ccccc1)n1c(=O)ccn(C2O[C@H](CO)[C@@H](O)[C@H]2O)c1=O` (stereo partly drawn), the Activity (Mus musculus [24]) was 2, the Sleeping time (Mus musculus [1]) was 27 min and the Activity (Mus musculus [25]) was 0. For the same molecule, the Sleeping time (Mus musculus [26]) was “None”, the Sleeping time (Mus musculus [8]) was “None” and the Activity (Mus musculus [27]) was 5. The “Sleeping time (% of control)” value (Mus musculus [10]) was 231%, the Control (Mus musculus [12]) was 303% and the Sleeping time (Mus musculus [13]) was 7 min.

With `Cc1ccc(Cn2c(=O)ccn(C3O[C@H](CO)[C@@H](O)[C@H]3O)c2=O)cc1` (stereo partly drawn) the “Sleeping time (% of control)” value (Mus musculus [10]) was 308%, the Sleeping time (Mus musculus [13]) was 36 min and the Sleeping time (Mus musculus [28]) was “None”.

In the case of `COC[C@H]1O[C@@H](n2ccc(=O)n(Cc3ccccc3)c2=O)[C@H](OC)[C@@H]1OC`, the Sleeping time (Mus musculus [4]) is reported as “None”, the Sleeping time (Mus musculus [22]) is reported as 6 min and the Partition coefficient [9] is reported as 64.45. The “Sleeping time (% of control)” value (Mus musculus [10]) was 200%, the Sleeping time (Mus musculus [13]) was 6 min and the Sleeping time (Mus musculus [23]) was 29 min.

With `CCn1c(=O)ccn(C2O[C@H](CO)[C@@H](O)[C@H]2O)c1=O` (stereo partly drawn) the Sleeping time (Mus musculus [15]) was “None”, the Sleeping time (Mus musculus [8]) was “None” and the Control (Mus musculus [12]) was 124%.

In the case of `O=c1c(F)cn(C2CCCO2)c(=O)n1Cc1ccccc1` (stereo not drawn), the Sleeping time (Mus musculus [4]) is reported as “None”, the Sleeping time (Mus musculus [22]) is reported as 2 min and the Partition coefficient [9] is reported as 23.94. The “Sleeping time (% of control)” value (Mus musculus [10]) was 262%, the Sleeping time (Mus musculus [13]) was 3 min and the Sleeping time (Mus musculus [23]) was 7 min.

With `O=c1ccn(C2O[C@H](CO)[C@@H](O)[C@H]2O)c(=O)n1Cc1ccc(Cl)cc1` (stereo partly drawn) the Sleeping time (Mus musculus [8]) was “None”, the Control (Mus musculus [12]) was 203% and the Sleeping time (Mus musculus [13]) was 20 min.

For `O=c1ccn(Cc2ccccc2)c(=O)n1Cc1ccccc1`, the Control (Mus musculus [12]) was 112%, the Sleeping time (Mus musculus [20]) was “None” and the Sleeping time (Mus musculus [29]) was 15 min. It also gave a Sleeping time (Mus musculus [23]) of 17 min.

For `O=c1cc[nH]c(=O)[nH]1` [URACIL], the Control (Mus musculus [6]) was 99%, the Sleeping time (Mus musculus [8]) was “None” and the Sleeping time (Mus musculus [20]) was “None”.
